Laboratory results taken from the NIST ThermoML archive (doi:10.1021/je1005483).

Tests used:
[1] = xn = mol fraction of the nth substance listed; conditions: 101.3 kPa, Liquid; for speed of sound: 298.15 K
[2] = molar heat capacity at constant pressure; xn = mol fraction of the nth substance listed; conditions: 298.15 K, 101.3 kPa, Liquid, Flow calorimetry

CC1COC(=O)O1 (configuration not stated) [4-methyl-1,3-dioxolan-2-one] + CC#N
Conditions | molar heat capacity at constant pressure, [2] [J/K/mol] | speed of sound, [1] [m/s]
x1 = 0.02042 | 93.86 | –
x1 = 0.04818 | 95.91 | –
x1 = 0.0502 | – | 1287.5
x1 = 0.08041 | 98.29 | –
x1 = 0.09602 | 99.45 | –
x1 = 0.1021 | 99.9 | –
x1 = 0.1022 | – | 1296.4
x1 = 0.1298 | 101.95 | –
x1 = 0.1438 | 103 | –
x1 = 0.1512 | – | 1305.1
x1 = 0.1521 | 103.61 | –
x1 = 0.1801 | 105.69 | –
x1 = 0.193 | 106.65 | –
x1 = 0.1988 | 107.08 | –
x1 = 0.2006 | – | 1313.9
x1 = 0.3006 | 114.62 | –
x1 = 0.3031 | – | 1331
x1 = 0.3051 | – | 1331.6
x1 = 0.3994 | 121.92 | –
x1 = 0.4046 | – | 1351.6
x1 = 0.4507 | 125.72 | –
x1 = 0.4508 | 125.72 | –
x1 = 0.5067 | – | 1369
x1 = 0.5997 | 136.77 | –
x1 = 0.5999 | 136.78 | –
x1 = 0.6088 | – | 1386.6
x1 = 0.6973 | 144.05 | –
x1 = 0.7035 | – | 1399.3
x1 = 0.7037 | – | 1399.4
x1 = 0.7485 | 147.88 | –
x1 = 0.7494 | 147.94 | –
x1 = 0.7986 | – | 1415.1
x1 = 0.856 | – | 1422.3
x1 = 0.8995 | 159.26 | –
x1 = 0.9004 | 159.33 | –
x1 = 0.9052 | – | 1427.8
x1 = 0.9518 | – | 1434.5
x1 = 0.9766 | – | 1438
x1 = 1 | 166.98 | 1443

mass density [kg/m3], [1]
Conditions | 308.15 K | 318.15 K
x1 = 0.00899 | 772.153 | –
x1 = 0.00987 | – | 762.8
x1 = 0.01974 | 779.714 | –
x1 = 0.02015 | – | 770.008
x1 = 0.02827 | 785.631 | –
x1 = 0.03912 | 793.054 | –
x1 = 0.04049 | – | 783.973
x1 = 0.04976 | 800.23 | –
x1 = 0.04999 | – | 790.403
x1 = 0.05955 | 806.732 | –
x1 = 0.05968 | – | 796.854
x1 = 0.06835 | 812.468 | –
x1 = 0.06983 | – | 803.478
x1 = 0.07649 | – | 807.807
x1 = 0.08237 | 821.557 | –
x1 = 0.09048 | – | 816.808
x1 = 0.09065 | 826.854 | –
x1 = 0.09974 | 832.541 | –
x1 = 0.1015 | – | 823.802
x1 = 0.1473 | 861.545 | –
x1 = 0.1527 | – | 855.059
x1 = 0.2011 | – | 882.847
x1 = 0.2018 | 892.585 | –
x1 = 0.2502 | – | 909.428
x1 = 0.2509 | 919.09 | –
x1 = 0.2971 | – | 933.541
x1 = 0.2983 | 943.362 | –
x1 = 0.4008 | 991.468 | –
x1 = 0.4037 | – | 983.751
x1 = 0.4905 | 1029.07 | –
x1 = 0.5036 | – | 1025.46
x1 = 0.5979 | 1069.65 | –
x1 = 0.6004 | – | 1061.56
x1 = 0.6902 | 1101.28 | –
x1 = 0.7016 | – | 1095.76
x1 = 0.7903 | 1132.31 | –
x1 = 0.7997 | – | 1125.73
x1 = 0.9005 | – | 1153.94
x1 = 0.901 | 1163.56 | –
x1 = 0.9113 | – | 1156.82
x1 = 0.9121 | 1166.51 | –
x1 = 0.9218 | 1169.02 | –
x1 = 0.9302 | 1171.25 | –
x1 = 0.934 | – | 1162.75
x1 = 0.9408 | – | 1164.5
x1 = 0.9411 | 1174.08 | –
x1 = 0.9504 | 1176.45 | –
x1 = 0.9519 | – | 1167.38
x1 = 0.9608 | – | 1169.62
x1 = 0.9609 | 1179.12 | –
x1 = 0.9707 | – | 1172.11
x1 = 0.9715 | 1181.77 | –
x1 = 0.9815 | 1184.24 | 1174.79
x1 = 0.9908 | – | 1177.08
x1 = 1 | 1188.73 | 1179.31
